Measurements reported in ChEMBL document CHEMBL1201862, “PubChem BioAssay data set” (2004).
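Assay format: 96-well plates, 48-hour exposure. GI50 is the concentration that inhibits growth by half.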 The source made the active and inactive calls. No stated cut-off is given here; in the data, active = GI50 up to about 1.1 µM and inactive = higher.

Assays:
Experiment in all cases: DTP human tumour cell line panel, 48 h
NCI-H522 = system: NCI-H522
UO-31 = system: UO-31
RXF 393 = system: RXF 393
SNB-19 = system: SNB-19
CAKI-1 = system: CAKI-1
ACHN = system: ACHN
LOX IMVI = system: LOX IMVI
SF-268 = system: SF-268
SF-539 = system: SF-539
KM12 = system: KM12
XF498 = system: XF498
SNB-78 = system: SNB-78
DMS-114 = system: DMS-114
SK-MEL-5 = system: SK-MEL-5
U-251 = system: U-251
SF-295 = system: SF-295
HCT-15 = system: HCT-15
HOP-18 = system: HOP-18
HCT-116 = system: HCT-116
786-0 = system: 786-0
OVCAR-5 = system: OVCAR-5
TK-10 = system: TK-10
RXF 631 = system: RXF 631
K562 = system: K562
DMS-273 = system: DMS-273
LXFL 529 = system: LXFL 529
M14 = system: M14
NCI-H226 = system: NCI-H226
KM-20L2 = system: KM-20L2
SNB-75 = system: SNB-75
OVCAR-8 = system: OVCAR-8
A498 = system: A498
NCI-H460 = system: NCI-H460
HL-60 = system: HL-60
HOP-62 = system: HOP-62
HCC 2998 = system: HCC 2998
M19-MEL = system: M19-MEL
SN12C = system: SN12C
SK-OV-3 = system: SK-OV-3
A549 = system: A549
UACC-257 = system: UACC-257
Malme-3M = system: Malme-3M
NCI-H23 = system: NCI-H23
CCRF-CEM = system: CCRF-CEM
EKVX = system: EKVX
IGROV-1 = system: IGROV-1
SK-MEL-2 = system: SK-MEL-2
HT-29 = system: HT-29
SK-MEL-28 = system: SK-MEL-28
SR = system: SR
UACC-62 = system: UACC-62
DLD-1 = system: DLD-1
OVCAR-4 = system: OVCAR-4
MOLT-4 = system: MOLT-4
HOP-92 = system: HOP-92
SW-620 = system: SW-620

Q: With [O-][Cl+3]([O-])([O-])O.c1ccc(/N=c2\nc(N3CCOCC3)ss2)cc1 as the molecule, how does the GI50 (NCI-H522) read?
A: 12.7 µM (inactive)

Q: What about the GI50 (UO-31) of the same molecule?
A: 28.6 µM (inactive)

Q: And the GI50 (RXF 393)?
A: 17.3 µM (inactive)

Q: What about the GI50 (SNB-19) of the same molecule?
A: 30.5 µM (inactive)

Q: And the GI50 (CAKI-1)?
A: 20.2 µM (inactive)

Q: What about the GI50 (ACHN) of the same molecule?
A: 16.5 µM (inactive)

Q: What about the GI50 (LOX IMVI) of the same molecule?
A: 16 µM (inactive)

Q: And the GI50 (SF-268)?
A: 16 µM (inactive)

Q: And the GI50 (SF-539)?
A: 18.3 µM (inactive)

Q: And the GI50 (KM12)?
A: 17.2 µM (inactive)

Q: And the GI50 (XF498)?
A: 17.9 µM (inactive)

Q: What about the GI50 (SNB-78) of the same molecule?
A: 22 µM (inactive)

Q: And the GI50 (DMS-114)?
A: 14.6 µM (inactive)

Q: And the GI50 (SK-MEL-5)?
A: 34.2 µM (inactive)

Q: And the GI50 (U-251)?
A: 15.2 µM (inactive)

Q: And the GI50 (SF-295)?
A: 18.7 µM (inactive)

Q: And the GI50 (HCT-15)?
A: 15.5 µM

Q: What about the GI50 (HOP-18) of the same molecule?
A: > 100 µM (inactive)

Q: And the GI50 (HCT-116)?
A: 14.6 µM (inactive)

Q: What about the GI50 (786-0) of the same molecule?
A: 16.4 µM (inactive)

Q: And the GI50 (OVCAR-5)?
A: 28.9 µM (inactive)

Q: What about the GI50 (TK-10) of the same molecule?
A: 46.5 µM (inactive)

Q: And the GI50 (RXF 631)?
A: 17.4 µM (inactive)

Q: What about the GI50 (K562) of the same molecule?
A: 16.5 µM (inactive)

Q: What about the GI50 (DMS-273) of the same molecule?
A: 17.4 µM (inactive)

Q: What about the GI50 (LXFL 529) of the same molecule?
A: 12.2 µM (inactive)

Q: And the GI50 (M14)?
A: 14.7 µM (inactive)

Q: What about the GI50 (NCI-H226) of the same molecule?
A: 61.1 µM (inactive)

Q: What about the GI50 (KM-20L2) of the same molecule?
A: 16.5 µM (inactive)

Q: And the GI50 (SNB-75)?
A: 19.9 µM (inactive)

Q: What about the GI50 (OVCAR-8) of the same molecule?
A: 15 µM (inactive)

Q: What about the GI50 (A498) of the same molecule?
A: 27.7 µM (inactive)

Q: What about the GI50 (NCI-H460) of the same molecule?
A: 17.6 µM (inactive)

Q: And the GI50 (HL-60)?
A: 14.6 µM (inactive)

Q: What about the GI50 (HOP-62) of the same molecule?
A: 41.3 µM (inactive)

Q: And the GI50 (HCC 2998)?
A: 21.1 µM (inactive)

Q: And the GI50 (M19-MEL)?
A: 18 µM (inactive)

Q: What about the GI50 (SN12C) of the same molecule?
A: 15.1 µM (inactive)

Q: And the GI50 (SK-OV-3)?
A: > 100 µM (inactive)

Q: What about the GI50 (A549) of the same molecule?
A: 33.4 µM (inactive)

Q: What about the GI50 (UACC-257) of the same molecule?
A: 15.8 µM (inactive)

Q: What about the GI50 (Malme-3M) of the same molecule?
A: 14.8 µM (inactive)

Q: What about the GI50 (NCI-H23) of the same molecule?
A: 29.5 µM (inactive)

Q: And the GI50 (CCRF-CEM)?
A: 0.016 µM (active)

Q: And the GI50 (EKVX)?
A: 21 µM (inactive)

Q: And the GI50 (IGROV-1)?
A: 20.1 µM (inactive)

Q: And the GI50 (SK-MEL-2)?
A: 17.9 µM (inactive)

Q: And the GI50 (HT-29)?
A: 20 µM (inactive)

Q: And the GI50 (SK-MEL-28)?
A: 17.2 µM (inactive)

Q: And the GI50 (SR)?
A: 16.6 µM (inactive)

Q: What about the GI50 (UACC-62) of the same molecule?
A: 13.8 µM (inactive)

Q: And the GI50 (DLD-1)?
A: 14.6 µM (inactive)

Q: What about the GI50 (OVCAR-4) of the same molecule?
A: 15.7 µM (inactive)

Q: And the GI50 (MOLT-4)?
A: 12.3 µM (inactive)

Q: What about the GI50 (HOP-92) of the same molecule?
A: 21.9 µM (inactive)

Q: What about the GI50 (SW-620) of the same molecule?
A: 10.2 µM (inactive)
